System: Leptosphaeria nodorum (LEPTNO)
Assay: In vitro fungitoxicity (growth inhibition) in copper-minus and copper-plus liquid medium
Assay type: cell-based
Conditions: CuCl2 10 μM, no test compound, copper-plus vs copper-minus medium, across experiments
Experimental: In vitro fungitoxicity assays against Leptosphaeria nodorum (LEPTNO) were conducted using the liquid growth medium described by Coursen and Sisler (American Journal of Botany 1960, 47, 541-549) except that copper micronutrient, normally included as CuSO4, was omitted. The medium, termed “copper-minus”, was prepared by dissolving 10 g glucose, 1.5 g K2HPO4, 2 g KH2PO4 and 1 g (NH4)2SO4 in 1 liter of deionized water and treating the solution with 0.5 g Chelex 100 resin (Bio-Rad Analytical grade, 50-100 mesh, sodium form, cat#142-2822) by stirring at room temperature for 1 h. MgSO4.7H2O (0.5 g) was added, and stirring was continued for a further hour. Trace elements (minus CuSO4), and vitamins described by Coursen and Sisler were added from concentrated stock solutions and the entire medium was sterilized by filtration. […]
LEPTNO was grown on potato dextrose agar in 9 cm diameter petri dishes for 7 days. […] The spores were resuspended in copper-minus medium, and the suspension adjusted to 2×10^5 spores per mL Microtiter plates were inoculated with 100 μL of this spore suspension and the plates incubated at 25° C. for 72 h before assessing fungal growth by measuring light scattering in a NepheloStar plate reader. Growth inhibition was determined by comparing growth in the presence of test compound with growth in control wells lacking test compound. […]

O.O.[Cl][Cu][Cl] [CuCl2, CuCl2.2H2O]
LEPTNO % Inhn. attributed to copper chloride alone: 7.1 ± 6.0%

Source: patent publication US20120141597A1 (priority 2009, published 2012)
